Tests used:
[1] = Drug metabolism in rat hepatocytes assessed as 8-(2-amino-6-((R)-1-(2-(3-carboxy-1H-pyrazol-1-yl)-4-chlorophenyl)-2,2,2-trifluoroethoxy)pyrimidin-4-yl)-2,8-diazaspiro[4.5]decane-3-carboxylic acid formation by LC/UV/MS method; assay type: ADME, cell-based, Hepatocyte
[2] = Drug metabolism in rat hepatocytes assessed as hydroxylation by measuring 8-(2-amino-6-((R)-1-(4-chloro-2-(3-(hydroxymethyl)-1H-pyrazol-1-yl)phenyl)-2,2,2-trifluoroethoxy)pyrimidin-4-yl)-2,8-diazaspiro[4.5]decane-3-carboxylic acid level by LC/UV/MS method; assay type: ADME, cell-based, Hepatocyte
[3] = Prodrug activation in rat hepatocytes assessed as ester hydrolysis by measuring 8-(2-amino-6-((R)-1-(4-chloro-2-(3-methyl-1H-pyrazol-1-yl)phenyl)-2,2,2-trifluoroethoxy)pyrimidin-4-yl)-2,8-diazaspiro[4.5]decane-3-carboxylic acid level by LC/UV/MS method; assay type: cell-based, Hepatocyte
[4] = Drug metabolism in rat hepatocytes assessed as 8-(2-amino-6-((R)-1-(4-chloro-2-(3-(sulfooxymethyl)-1H-pyrazol-1-yl)phenyl)-2,2,2-trifluoroethoxy)pyrimidin-4-yl)-2,8-diazaspiro[4.5]decane-3-carboxylic acid formation by LC/UV/MS method; assay type: ADME, cell-based, Hepatocyte

- Drug metabolism [1]: Metabolite_Detected
- Drug metabolism [2]: Metabolite_Detected
- Drug metabolism [3]: Metabolite_Detected
- Drug metabolism [4]: Metabolite_Detected
Structure (SMILES): CCOC(=O)C1CC2(CCN(c3cc(O[C@H](c4ccc(Cl)cc4-n4ccc(C)n4)C(F)(F)F)nc(N)n3)CC2)CN1 (some centres undefined)
